Test results from patent EP0596449A2, “Serotonin receptor antagonists for treating myocardial ischemia” (E.R. SQUIBB & SONS, INC., priority 1992, dated 1994).
Entries after “also recorded” stand apart in the source; their conditions may differ. Marks after values point to notes of the source that are not given here.

How the values were obtained:
[1] = system: globally ischemic rat hearts; test: Parachlorophenylalanine pretreatment of rats, then global ischemia/reperfusion of the isolated hearts; settings: for time to contracture: parachlorophenylalanine pretreatment i.p., compared to vehicle, p<0.05, Figure 4
Experimental: (§1) To determine the effect of serotonin receptor agonists and antagonists, male Sprague-Dawley rats (450-550 g) were prepared as described below. The rats were anesthetized using 100 mg/kg sodium pentobarbital (i.p.). They were intubated and then treated with i.v. heparin (1000 U/kg). While being mechanically ventilated, their hearts were perfused in situ via retrograde cannulation of the aorta. The hearts were then excised and […] moved to a Langendorff apparatus where they were perfused with Krebs-henseleit bicarbonate buffer solution ((mM): 112 NaCI, 25 NaHC03, 5 KCI, 1.2 MgS04, 1 KH2P04, 1.25 CaC12, 2 pyruvate and 11.5 dextrose bubbled with 95% 02 - 5% C02) at a constant perfusion pressure (85 mm Hg). A water-filled latex balloon attached to a metal cannula was then inserted into the left ventricle and connected to a Statham pressure transducer for measurement of left ventricular pressure. The hearts were allowed to equilibrate for 15 min, at which time end diastolic pressure (EDP) was adjusted to 5 mm Hg and this balloon volume was maintained for the duration of the experiment. Pre-ischemia or pre-drug function, heart rate and coronary flow (extracorporeal electromagnetic flow probe) were then measured. Left ventricular developed pressure (LVDP) was calculated from the difference between left ventricular peak systolic pressure and EDP. Cardiac temperature was maintained throughout the experiment by submerging the hearts in 37 ° C buffer which was allowed to accumulate in a stoppered, heated chamber.
To determine if endogenous 5HT is mediating a pro-ischemic effect in isolated hearts, rats, prepared as described below were treated with parachlorophenylalanine. Parachlorophenylalanine depletes brain and peripheral 5HT by inhibition of tryptophan hydroxylase, the rate limiting step in 5HT synthesis. […] Male Sprague-Dawely rats (450-550 g) were injected with i.p. 105 mg/kg parachlorophenylalanine (n = 10) or its vehicle (water, n = 6) on three consecutive days. On the fourth day, the rats were anesthetized with 100 mg/kg sodium pentobarbital. The hearts were then excised and moved to an isolated heart apparatus as described above. The hearts were then subjected to 25 minutes to global ischemia and 30 minutes of reperfusion. Time to contracture, recovery of contractile function, coronary flow and cumulative LDH release were measured as described above.

[2] = system: globally ischemic, isolated rat hearts; test: Effect of 5HT, alone or with 5HT2 antagonist, on time to contracture and pre-ischemic function in isolated rat hearts; settings: for Coronary Flow / HR / LVDP: pre-ischemic
Experimental: To determine the effect of serotonin receptor agonists and antagonists, male Sprague-Dawley rats (450-550 g) were prepared as described below. The rats were anesthetized using 100 mg/kg sodium pentobarbital (i.p.). They were intubated and then treated with i.v. heparin (1000 U/kg). While being mechanically ventilated, their hearts were perfused in situ via retrograde cannulation of the aorta. […] A water-filled latex balloon attached to a metal cannula was then inserted into the left ventricle and connected to a Statham pressure transducer for measurement of left ventricular pressure. […] Pre-ischemia or pre-drug function, heart rate and coronary flow (extracorporeal electromagnetic flow probe) were then measured. Left ventricular developed pressure (LVDP) was calculated from the difference between left ventricular peak systolic pressure and EDP. Cardiac temperature was maintained throughout the experiment by submerging the hearts in 37 ° C buffer which was allowed to accumulate in a stoppered, heated chamber. In another series of hearts, the effect of 5HT on the severity of ischemia was determined. […] Vehicle (0.1% DMSO) given 10 minutes before ischemia (n = 5). The hearts were subjected to global ischemia as described above and time to contracture determined. Reperfusion function and LDH release were not determined in this group.

[3] = system: globally ischemic rat hearts; test: Global ischemia (25 min) and reperfusion (30 min) in isolated perfused rat hearts, 5HT2 antagonists; settings: for EC25: Rattus norvegicus, drug given 10 minutes before global ischemia, read-out: EC25 (concentration which increased the time to contracture 25% above vehicle group values)
Experimental: as §1
The model of global ischemia in isolated rat hearts was designed such that any protective effects observed are generally due to a direct cardioprotective effect and not to effects on cornonary or peripheral vascular tone. Also, because the hearts are perfused with an oxygenated buffer solution, platelets or the normal components of an inflammatory response are probably not important mediators of the ischemic/reperfusion injury observed in this model. […] Agents which exert their protective effects either through their effects on the peripheral or coronary vasculature such as nitrates or agents which act on blood or act on some component of the inflammatory response such as thromboxane A2 receptor antagonists are generally ineffective in this model.
The hearts were divided into the following groups: 1. Vehicle (0.1% DMSO) treatment beginning 10 minutes before the onset of ischemia (n = 8). 2. 0.3-10 µM ketanserin treatment beginning 10 minutes before the onset of ischemia (n = 4-5 per group). 3. 10 µM ketanserin given only during reperfusion (n = 4). 4. 0.1-10 µM cinanserin treatment beginning 10 minutes before global ischemia (n = 4-10). 5. 1-10 µM LY 53857 treatment beginning 10 minutes before the onset of ischemia (n = 4 per group). After 10 minutes of vehicle or drug pretreatment, the hearts were subjected to 25 minutes of total global ischemia which was initiated by shutting off the perfusate flow. Reperfusion was begun (without drug except in the case of group 3 above) and allowed to continue for 30 minutes. At this time, final measurements of EDP, LVDP and coronary flow were obtained. Cumulative LDH relase was measured in the reperfusate and was used as the index of cellular and membrane viability. In all hearts, the time to contracture during ischemia was measured and used as an index of cardioprotection during ischemia. Time to contracture is defined as the time (minutes) necessary for the first 5 mm Hg increase in EDP to occur during global ischemia. The data were expressed as the percent change in time to contracture from vehicle.

alpha, Adrenoceptors = test: Methoxamine-induced contraction in rat aortic rings (alpha1 blocking potency); settings: 45 minute incubation; Figure 5A
Experimental: In order to determine the alpha1 blocking potency of cinanserin, ketanserin and LY 53857, their effect on methoxamine induced aortic constriction was determined. Male Sprague-Dawley rats were sacrificed using C02. Aortic rings (3 mm in width) were cut, denuded of endothelium by gently rolling the rings on moistened filter paper, and mounted on stainless steel hooks in 20 mL muscle chambers containing oxygenated physiological salt solution (PSS) of the following composition (in mM): 118.4 NaCI, 4.7 KCI, 1.2 MgS04, 1.2 KH2P04, 1.9 CaC12, 25.0 NaHC03, 10.1 D-glucose, and 0.01 mM Na2EDTA maintained at 37 °C. The hooks were connected to Grass FT03C transducers for recording of isometric force development. The rings were stretched to 2 g preload during the equilibration period. During equilibration the rings were periodically stimulated with 24 mM KCI to determine contractility. The effectiveness of endothelial removal was confirmed by the absence of relaxation by 1 µM acetylcholine of a contraction in response to 0.01 µM phenylephrine.
Various concentrations of the test compounds were then added to individual baths and allowed a 45 minute incubation before cumulative concentration response curves for methoxamine (1 nM-30 /1.M) were obtained. Solvent controls were run in parallel. […]

[4] = i.p. 105 mg/kg on three consecutive days, 30 Min. Post-Ischemia
[5] = i.p. 105 mg/kg on three consecutive days, Pre-Ischemia
[6] = 30 μM 5HT + 1 μM Cinanserin, Post-Drug
[7] = 30 μM 5HT + 1 μM Cinanserin, Pre-Drug

Compound: N[C@@H](Cc1ccc(Cl)cc1)C(=O)O (racemic) [PCPA, parachlorophenylalanine]
- Coronary Flow [1, 4]: 18±2^b mL/min/g
- HR [1, 4]: 275±8^b beats/min
- LVDP [1, 4]: 60±7^a,b mmHg
- LDH Release ([1]; i.p. 105 mg/kg on three consecutive days, 30 Min. Post-Ischemia (during reperfusion)): 15±2^b u/g
- Coronary Flow [1, 5]: 18 ± 1 mL/min/g
- HR [1, 5]: 271±8 beats/min
- LVDP [1, 5]: 128±11 mmHg
- time to contracture ([1]; listed as Parachlorophenylalanine): significantly increased time to contracture
- time to contracture ([1]; listed as parachlorophenylalanine): significantly incareased the time to contracture

Compound: NCCc1c[nH]c2ccc(O)cc12 [5HT, serotonin]
- Coronary Flow ([2]; 1 μM 5HT, Post-Drug): 16 ± 1 mL/min/g
- HR ([2]; 1 μM 5HT, Post-Drug): 276±5 beats/min
- LVDP ([2]; 1 μM 5HT, Post-Drug): 141±3 mmHg
- Coronary Flow ([2]; 1 μM 5HT, Pre-Drug): 16 ± 1 mL/min/g
- HR ([2]; 1 μM 5HT, Pre-Drug): 273±7 beats/min
- LVDP ([2]; 1 μM 5HT, Pre-Drug): 145±4 mmHg
- Coronary Flow ([2]; 10 μM 5HT, Post-Drug): 20 ± 2 mL/min/g
- HR ([2]; 10 μM 5HT, Post-Drug): 294±11 beats/min
- LVDP ([2]; 10 μM 5HT, Post-Drug): 132±7 mmHg
- Coronary Flow ([2]; 10 μM 5HT, Pre-Drug): 19 ± 2 mL/min/g
- HR ([2]; 10 μM 5HT, Pre-Drug): 300±7 beats/min
- LVDP ([2]; 10 μM 5HT, Pre-Drug): 135±4 mmHg
- Coronary Flow ([2]; 30 μM 5HT, Post-Drug): 14 ± 1 mL/min/g
- HR ([2]; 30 μM 5HT, Post-Drug): 319±20 beats/min
- LVDP ([2]; 30 μM 5HT, Post-Drug): 103±11 mmHg
- Coronary Flow ([2]; 30 μM 5HT, Pre-Drug): 16 ± 1 mL/min/g
- HR ([2]; 30 μM 5HT, Pre-Drug): 281±15 beats/min
- LVDP ([2]; 30 μM 5HT, Pre-Drug): 117±5 mmHg
- Coronary Flow ([2]; 100 μM 5HT, Post-Drug): 15 ± 3 mL/min/g
- HR ([2]; 100 μM 5HT, Post-Drug): 369±19^a,b beats/min
- LVDP ([2]; 100 μM 5HT, Post-Drug): 88±8^a,b mmHg
- Coronary Flow ([2]; 100 μM 5HT, Pre-Drug): 16 ± 2 mL/min/g
- HR ([2]; 100 μM 5HT, Pre-Drug): 298±10 beats/min
- LVDP ([2]; 100 μM 5HT, Pre-Drug): 121±8 mmHg
- effect on the severity of ischemia (time to contracture) ([2]; 1 and 10 µM concentrations): without any measurable effect
- time to contracture ([2]; at 30 and 100µM, compared to vehicle, p<0.05, Figure 3): significantly reduced time to contracture
- time to contracture ([2]; at >30 µM): significantly decrease time to contracture

Compound: CN(C)CCCSc1ccccc1NC(=O)/C=C/c1ccccc1 [Cinanserin, cinanserin]
- reperfusion LDH release ([3]; 1-10 µM, compared to vehicle, Figure 2A): Significant reductions in LDH
- EC25 [3]: 1.6 µM
- Coronary Flow [2, 6]: 18 ± 1 mL/min/g
- HR [2, 6]: 340±11^a,b beats/min
- LVDP [2, 6]: 122±5 mmHg
- Coronary Flow [2, 7]: 19 ± 1 mL/min/g
- HR [2, 7]: 297±9 beats/min
- LVDP [2, 7]: 139±7 mmHg
- effect on the pro-ischemic effect of 5HT (time to contracture) ([2]; 30 µM 5HT plus antagonist, both given 10 minutes before ischemia, Figure 3): completely abolished this pro-ischemic effect; also recorded: abolished the pro-ischemic effect of serotonin

Compound: CC(O)C(C)OC(=O)C1CC2c3cccc4c3c(cn4C(C)C)CC2N(C)C1 (stereo not drawn) [LY 53857]
- Coronary Flow ([3]; 1 µM, 30 Min Post-Reperfusion): 12±1^a mL/min/g
- HR ([3]; 1 µM, 30 Min Post-Reperfusion): 230±25 beats/min
- LVDP ([3]; 1 µM, 30 Min Post-Reperfusion): 23±5^a mmHg
- Coronary Flow ([3]; 1 µM, Pre-Ischemia, Post-Drug): 15 ± 1 mL/min/g
- HR ([3]; 1 µM, Pre-Ischemia, Post-Drug): 257±6 beats/min
- LVDP ([3]; 1 µM, Pre-Ischemia, Post-Drug): 132±6 mmHg
- Coronary Flow ([3]; 1 µM, Pre-Ischemia, Pre-Drug): 17 ± 1 mL/min/g
- HR ([3]; 1 µM, Pre-Ischemia, Pre-Drug): 270±5 beats/min
- LVDP ([3]; 1 µM, Pre-Ischemia, Pre-Drug): 141±4 mmHg
- Coronary Flow ([3]; 3 µM, 30 Min Post-Reperfusion): 13±1^a mL/min/g
- HR ([3]; 3 µM, 30 Min Post-Reperfusion): 240±13 beats/min
- LVDP ([3]; 3 µM, 30 Min Post-Reperfusion): 73±7^a,b mmHg
- Coronary Flow ([3]; 3 µM, Pre-Ischemia, Post-Drug): 17 ± 1 mL/min/g
- HR ([3]; 3 µM, Pre-Ischemia, Post-Drug): 265±8 beats/min
- LVDP ([3]; 3 µM, Pre-Ischemia, Post-Drug): 144±6 mmHg
- Coronary Flow ([3]; 3 µM, Pre-Ischemia, Pre-Drug): 17 ± 1 mL/min/g
- HR ([3]; 3 µM, Pre-Ischemia, Pre-Drug): 274±5 beats/min
- LVDP ([3]; 3 µM, Pre-Ischemia, Pre-Drug): 148±6 mmHg
- Coronary Flow ([3]; 10 µM, 30 Min Post-Reperfusion): 15 ± 3 mL/min/g
- HR ([3]; 10 µM, 30 Min Post-Reperfusion): 250±4 beats/min
- LVDP ([3]; 10 µM, 30 Min Post-Reperfusion): 86±6^a,b mmHg
- Coronary Flow ([3]; 10 µM, Pre-Ischemia, Post-Drug): 21 ± 3 mL/min/g
- HR ([3]; 10 µM, Pre-Ischemia, Post-Drug): 252±12^a beats/min
- LVDP ([3]; 10 µM, Pre-Ischemia, Post-Drug): 123±5 mmHg
- Coronary Flow ([3]; 10 µM, Pre-Ischemia, Pre-Drug): 20 ± 3 mL/min/g
- HR ([3]; 10 µM, Pre-Ischemia, Pre-Drug): 288±10 beats/min
- LVDP ([3]; 10 µM, Pre-Ischemia, Pre-Drug): 130±5 mmHg
- EC25 [3]: 6.1 µM
- reperfusion LDH release ([3]; at 3 and 10 µM concentrations, Figure 2C): significantly reduced it

Compound: COc1cc2nc(N3CCN(C(=O)c4ccco4)CC3)nc(N)c2cc1OC [prazosin]
- concentration from which the methoxamine-tension curve was shifted to the right (alpha, Adrenoceptors): 1 nM
